Molecules are shown by their SMILES.

What is called IC50 is the concentration that inhibits the measured activity by half.

The first assay deals with Human hepatic cancer cells HepG2. The assay is described as follows: TG production inhibiting activity (14C-acetic acid incorporation into TG) in HepG2 cells. The assay is classed as cell-based. To be noted: Homo sapiens, HepG2; group criterion, alternatives: IC50 at least 10 μM and less than 100 μM, or at least 5% and less than 30% inhibition at 1 μM, or at least 30% and less than 50% inhibition at 10 μM. Here is the method:
Human hepatic cancer cells HepG2 were inoculated into a 24-well plate (Costar No. 3524) at 4×10^4 cells/well, and 1 ml of medium (eRDF medium containing 10% bovine serum (Kyokuto Chemical Co.)) was used for 6 day culturing with 5% CO2 at 37° C. After drawing off the supernatant medium, the cells were freshly rinsed with 1 ml of PBS(−) buffer solution (Takara Shuzo) and drawn off. This procedure was repeated twice and then 1 ml of fresh medium (eRDF medium) was added.
6-(benzofuran-2-yl)-3,5-dimethyl-4-hydroxy-2H-pyran-2-one (Example 2) was dissolved in dimethylsulfoxide (DMSO) to prepare a 20 mM sample stock solution. A diluted solution was obtained by diluting the sample solution with DMSO.
To the cells prepared above there were added the sample stock solution or its diluted solution at 5 μl per well and 10 μl of ^14C-acetic acid solution (a solution of Amersham Code No. CFA13 diluted 4.4-fold with PBS(−) buffer), and culturing was carried out for one day with 5% CO2 at 37° C.
After the culturing was completed, the culture solution was removed, and 1 ml of extraction solution (a mixture of n-hexane and isopropyl alcohol at 2:1) was added for extraction treatment on the lipid components in the cells. After the treatment, the extract containing the obtained lipid components was air-dried, the residue was redissolved in 20 μl of a mixed solution of n-hexane and ethyl acetate at 9:1, and the solution was spotted on a thin-layer chromatography plate (S319, Tokyo Kasei) and developed by thin-layer chromatography with the mixed solution mentioned above. After air-drying, the lipid components were colored with iodine vapor, the portion corresponding to TG was cut out, and the amount of TG biosynthesized was measured with a liquid scintillation counter.
In turn, `Cc1c(-c2cc3cc(C=O)ccc3o2)oc(=O)c(C)c1O` [Example 7, 3,5-dimethyl-6-(5-formylbenzofuran-2-yl)-4-hydroxy-2H-pyran-2-one] yielded an IC50 of 10 to 100 µM. Still for that read-out and setting: next, `CC(=O)Oc1c(C)c(-c2cc3cc(C=O)ccc3o2)oc(=O)c1C` [Example 8, 4-acetyloxy-3,5-dimethyl-6-(5-formylbenzofuran-2-yl)-2H-pyran-2-one]: 10 to 100 µM; `CC(=O)Oc1c(C)c(-c2cc3ccc(O)cc3o2)oc(=O)c1C` [Example 18, 4-acetyloxy-3,5-dimethyl-6-(6-hydroxybenzofuran-2-yl)-2H-pyran-2-one]: 10 to 100 µM.

As to `COC(=O)c1ccc2cc(-c3oc(=O)c(C)c(O)c3C)oc2c1` [Example 22, 3,5-dimethyl-4-hydroxy-6-(6-(methoxycarbonyl)benzofuran-2-yl)-2H-pyran-2-one], the IC50 was 10 to 100 µM. On the same count and under the same terms, next, `CC(=O)Oc1c(C)c(-c2cc3ccc(N(C)C)cc3o2)oc(=O)c1C` [Example 23, 4-acetyloxy-3,5-dimethyl-6-(6-dimethylaminobenzofuran-2-yl)-2H-pyran-2-one]: 10 to 100 µM; `CC(=O)Oc1c(C)c(-c2cc3ccc(-c4ccco4)cc3o2)oc(=O)c1C` [Example 24, 4-acetyloxy-3,5-dimethyl-6-(6-(2-furyl)benzofuran-2-yl)-2H-pyran-2-one]: 10 to 100 µM; `Cc1c(O)cc(-c2cc3ccccc3o2)oc1=O` [Example 32, 6-(benzofuran-2-yl)-4-hydroxy-3-methyl-2H -pyran-2-one]: 10 to 100 µM. Same read-out and setting: next, `Cc1c(O)c(-c2ccccc2)c(-c2cc3ccccc3o2)oc1=O` [Example 35, 6-(benzofuran-2-yl)-4-hydroxy-3-methyl-5-phenyl-2H-pyran-2-one]: 10 to 100 µM. Same read-out and setting: next, `COc1c(-c2cc3ccccc3o2)oc(=O)c(C)c1O` [Example 37, 6-(benzofuran-2-yl)-4-hydroxy-5-methoxy-3-methyl-2H-pyran-2-one]: 10 to 100 µM; `Cc1c(-c2cc3ccccc3o2)oc(=O)c(C(C)C)c1O` [Example 38, 6-(benzofuran-2-yl)-4-hydroxy-3-isopropyl-5-methyl-2H-pyran-2-one]: 10 to 100 µM. The molecule `Cc1c(-c2cc3ccccc3o2)oc(=O)c(C)c1OS(=O)(=O)C(F)(F)F` [Example 43, 6-(benzofuran-2-yl)-3,5-dimethyl-4-trifluoromethanesulfonyloxy-2H-pyran-2-one] came in with an IC50 of 10 to 100 µM. Same read-out and setting: next, `CCNc1ccc2oc(-c3oc(=O)c(C)c(O)c3C)cc2c1` [Example 46, 3,5-dimethyl-6-(5-(ethylamino)benzofuran-2-yl)-4-hydroxy-2H-pyran-2-one]: 10 to 100 µM.

Staying with this assay, now noted: Homo sapiens, HepG2; group criterion, alternatives: IC50 less than 10 μM, or at least 30% inhibition at 1 μM, or at least 50% inhibition at 10 μM.
Turning to `CC(=O)Oc1c(C)c(-c2cc3ccccc3o2)oc(=O)c1C` [Example 1, 4-acetyloxy-6-(benzofuran-2-yl)-3,5-dimethyl-2H-pyran-2-one], the IC50 is < 10 µM. The same measure, in the same setting: the value for `Cc1c(-c2cc3ccccc3o2)oc(=O)c(C)c1OC(=O)c1ccccc1` [Example 3, 6-(benzofuran-2-yl)-4-benzoyloxy-3,5-dimethyl-2H-pyran-2-one] was < 10 µM; that for `Cc1c(-c2cc3ccccc3o2)oc(=O)c(C)c1OS(C)(=O)=O` [Example 4, 6-(benzofuran-2-yl)-3,5-dimethyl-4-methanesulfonyloxy-2H-pyran-2-one] was < 10 µM; that for `Cc1c(-c2cc3cc(C=C4SC(=O)NC4=O)ccc3o2)oc(=O)c(C)c1O` [Example 9, 3,5-dimethyl-6-(5-((3,5-dioxo-2,4-thiazolidinylidene)methyl)benzofuran-2-yl)-4-hydroxy-2H-pyran-2-one] was < 10 µM. On to `CCCCCc1c(-c2cc3ccccc3o2)oc(=O)c(C)c1O` [Example 11, 6-(benzofuran-2-yl)-4-hydroxy-3-methyl-5-n-pentyl-2H-pyran-2-one], for which the IC50 was < 10 µM. The same measure, in the same setting: the value for `COc1ccc2oc(-c3oc(=O)c(C)c(O)c3C)cc2c1` [Example 12, 3,5-dimethyl-4-hydroxy-6-(5-methoxybenzofuran-2-yl)-2H-pyran-2-one] was < 10 µM; that for `COc1cccc2cc(-c3oc(=O)c(C)c(O)c3C)oc12` [Example 13, 3,5-dimethyl-4-hydroxy-6-(7-methoxybenzofuran-2-yl)-2H-pyran-2-one] was < 10 µM. Take `CC(=O)Oc1c(C)c(-c2cc3ccc(OS(=O)(=O)C(F)(F)F)cc3o2)oc(=O)c1C` [Example 19, 4-acetyloxy-3 ,5-dimethyl-6-(6-(trifluoromethanesulfonyloxy)benzofuran-2-yl)-2H-pyran-2-one]: the IC50 is < 10 µM.

Regarding `CC(=O)Oc1c(C)c(-c2cc3ccc(-c4cccs4)cc3o2)oc(=O)c1C` [Example 25, 4-acetyloxy-3,5-dimethyl-6-(6-(2-thienyl)benzofuran-2-yl)-2H-pyran-2-one], the IC50 was < 10 µM. As for `COc1ccc2cc(-c3oc(=O)c(C)c(O)c3C)oc2c1` [Example 26, 3,5-dimethyl-4-hydroxy-6-(6-methoxybenzofuran-2-yl)-2H-pyran-2-one], the IC50 is < 10 µM. Still for that read-out and setting: next, `Cc1c(-c2cc3cc(OCc4cncnc4)ccc3o2)oc(=O)c(C)c1O` [Example 27, 3,5-dimethyl-4-hydroxy-6-(5-(5-pyrimidinylmethoxy)benzofuran-2-yl)-2H-pyran-2-one]: < 10 µM; `Cc1c(-c2cc3ccccc3o2)oc(=O)c(C)c1OC(=O)c1ccc(CO)cc1` [Example 28, 6-(benzofuran-2-yl)-3,5-dimethyl-4-(4-hydroxymethylbenzoyloxy)-2H-pyran-2-one]: < 10 µM. The same measure, in the same setting: next, `COc1ccc(C(=O)Oc2c(C)c(-c3cc4ccccc4o3)oc(=O)c2C)cc1` [Example 30, 6-(benzofuran-2-yl)-3,5-dimethyl-4-(4-methoxybenzoyloxy)-2H-pyran-2-one]: < 10 µM.

For `Cc1c(-c2cc3ccccc3o2)oc(=O)c(C)c1OC(=O)Cc1ccccc1` [Example 31, 6-(benzofuran-2-yl)-3,5-dimethyl-4-phenylacetyloxy-2H-pyran-2-one], the IC50 was < 10 µM. As for `CCc1c(-c2cc3ccccc3o2)oc(=O)c(C)c1O` [Example 33, 6-(benzofuran-2-yl)-5-ethyl-4-hydroxy-3-methyl-2H-pyran-2-one], the IC50 is < 10 µM. Take `Cc1c(O)c(C(C)C)c(-c2cc3ccccc3o2)oc1=O` [Example 34, 6-(benzofuran-2-yl)-4-hydroxy-5-isopropyl-3-methyl-2H-pyran-2-one]: the IC50 is < 10 µM. As to `Cc1c(O)c(Cc2ccccc2)c(-c2cc3ccccc3o2)oc1=O` [Example 36, 6-(benzofuran-2-yl)-5-benzyl-4-hydroxy-3-methyl-2H-pyran-2-one], the IC50 was < 10 µM. In the case of `Cc1c(-c2cc3ccccc3o2)oc(=O)c(C)c1OC(=O)C(C)C` [Example 39, 6-(benzofuran-2-yl)-3,5-dimethyl-4-isobutyryloxy-2H-pyran-2-one], the IC50 was < 10 µM. With `Cc1c(-c2cc3ccccc3o2)oc(=O)c(C)c1OC(=O)COc1ccccc1` [Example 42, 6-(benzofuran-2-yl)-3,5-dimethyl-4-phenoxyacetyloxy-2H-pyran-2-one], the IC50 is < 10 µM. For `Cc1c(-c2cc3cc([N+](=O)[O-])ccc3o2)oc(=O)c(C)c1O` [Example 45, 3,5-dimethyl-4-hydroxy-6-(5-nitrobenzofuran-2-yl)-2H-pyran-2-one], the IC50 was < 10 µM. With `Cc1c(-c2cc3cc(N(C)C)ccc3o2)oc(=O)c(C)c1O` [Example 48, 3,5-dimethyl-6-(5-(dimethylamino)benzofuran-2-yl)-4-hydroxy-2H-pyran-2-one], the IC50 was < 10 µM. Still for that read-out and setting: the value for `Cc1c(-c2cc3cc(N(Cc4ccccc4)Cc4ccccc4)ccc3o2)oc(=O)c(C)c1O` [Example 49, 6-(5-(dibenzylamino)benzofuran-2-yl)-3,5-dimethyl-4-hydroxy-2H-pyran-2-one] was < 10 µM; that for `Cc1c(-c2cc3ccccc3o2)oc(=O)c(C)c1OC(=O)c1ccncc1` [Example 50, 6-(benzofuran-2-yl)-3,5-dimethyl-4-isonicotinoyloxy-2H-pyran-2-one] was < 10 µM; that for `Cc1c(-c2cc3cc(OCc4ccccc4)ccc3o2)oc(=O)c(C)c1OC(=O)CNC(=O)OC(C)(C)C` [Example 52, 6-(5-benzyloxybenzofuran-2-yl)-4-(2-(t-butoxycarbonylamino)acetyloxy)-3,5-dimethyl-2H-pyran-2-one] was < 10 µM. With `CC(=O)Nc1ccc(C(=O)Oc2c(C)c(-c3cc4cc(OCc5ccccc5)ccc4o3)oc(=O)c2C)cc1` [Example 54, 4-(4-(acetylamino)benzoyloxy)-6-(5-benzyloxybenzofuran-2-yl)-3,5-dimethyl-2H-pyran-2-one], the IC50 is < 10 µM. For `Cc1c(-c2cc3cc(OCc4ccccc4)ccc3o2)oc(=O)c(C)c1OC(=O)c1cccnc1` [Example 55, 6-(5-benzyloxybenzofuran-2-yl)-3,5-dimethyl-4-nicotinoyloxy-2H-pyran-2-one], the IC50 is < 10 µM.

For the origin of these results see patent US6589984B1, “Benzofurylpyrone derivatives” (Teijin Limited, priority 1998, dated 2003).
